Data reported in PMC6271338, “Synthesis and Cytotoxic Evaluation of Alkoxylated Chalcones” (Molecules, 2014).

Experiments:
HepG2 cells = test: In vitro anti-proliferative SRB assay, HepG2; assay type: cell-based, human; details: for IC50: Homo sapiens, HepG2, increasing concentrations up to 30 μM, mean ± SD of at least three independent experiments; for SI (CC50 HMLE/IC50 HepG2) / SI (CC50 L02/IC50 HepG2): selectivity index; for SI (CC50 HMLE/IC50 HepG2): HMLE vs HepG2; for SI (CC50 L02/IC50 HepG2): L02 vs HepG2
SW1990 cells = test: In vitro anti-proliferative SRB assay, SW1990; assay type: cell-based, human; details: for IC50: Homo sapiens, SW1990, increasing concentrations up to 30 μM, mean ± SD of at least three independent experiments; for SI (CC50 HMLE/IC50 SW1990) / SI (CC50 L02/IC50 SW1990): selectivity index; for SI (CC50 HMLE/IC50 SW1990): HMLE vs SW1990; for SI (CC50 L02/IC50 SW1990): L02 vs SW1990
HeLa cells = test: In vitro anti-proliferative SRB assay, HeLa; assay type: cell-based, human; details: for IC50: Homo sapiens, HeLa, increasing concentrations up to 30 μM, mean ± SD of at least three independent experiments; for SI (CC50 HMLE/IC50 Hela) / SI (CC50 L02/IC50 Hela): selectivity index; for SI (CC50 HMLE/IC50 Hela): HMLE vs HeLa; for SI (CC50 L02/IC50 Hela): L02 vs HeLa
[1] = test system: five human cancer cell lines (HepG2, HeLa, MCF-7, A549 and SW1990); test: In vitro anti-proliferative SRB assay, summary statements over the five-line panel; assay type: cell-based
Experimental: With a aim of identifying potential anticancer agents with enhanced levels of activity, as well as verifying the conclusions provided above, we took a14 as a starting compound, and then designed and synthesized a series of chalcones b1–42 bearing methoxy groups at the 2' and 6'-positions of the B-ring, whilst varying the substituents on the A-ring. The cytotoxicities of the resulting chalcones were evaluated in vitro against five human cancer cell lines and other two non-tumoral cell lines, including HepG2, HeLa, MCF-7, A549, SW1990, HMLE and L02, and the results are shown in Table 2.
HepG2 and MCF7 cells were grown in the Eagle’s minimum essential medium with Earle’s balanced salts (MEM-EBSS) medium, HeLa, A549 and L02 cells were grown in Dulbecco’s Modified Eagle Media (DMEM), SW1990 cells were grown in RPMI-1640 medium, and HMLE cell were grown in DMEM/F-12 medium. The media were supplemented with 100 U/mL penicillin, […] streptomycin and 10% fetal bovine serum (FBS), and incubated at 37 °C in a humidified atmosphere containing 5% CO2.
Cells were seeded into 96-well plates (4000 cells/well) and incubated at 37 °C in a humidified 5% CO2 atmosphere. After 24 h, the cells were treated with different concentrations of the compounds for 48 h in triplicate to generate dose-response curves. Cell viability was evaluated using the sulforhodamine B (SRB) assay as previous described. […] Etoposide was used as the positive control.

MCF-7 cells = test: In vitro anti-proliferative SRB assay, MCF-7; assay type: cell-based, human; details: for IC50: Homo sapiens, MCF7, increasing concentrations up to 30 μM, mean ± SD of at least three independent experiments; for SI (CC50 HMLE/IC50 MCF7) / SI (CC50 L02/IC50 MCF7): selectivity index; for SI (CC50 HMLE/IC50 MCF7): HMLE vs MCF7; for SI (CC50 L02/IC50 MCF7): L02 vs MCF7
A549 cells = test: In vitro anti-proliferative SRB assay, A549; assay type: cell-based, human; details: for IC50: Homo sapiens, A549, increasing concentrations up to 30 μM, mean ± SD of at least three independent experiments; for SI (CC50 HMLE/IC50 A549) / SI (CC50 L02/IC50 A549): selectivity index; for SI (CC50 HMLE/IC50 A549): HMLE vs A549; for SI (CC50 L02/IC50 A549): L02 vs A549
[2] = Cytotoxicity (SRB) against non-tumoral L02 cells; assay type: cell-based, human; details: human, L02 cells (non-tumoral human liver cell line); increasing concentrations up to 100 μM; mean ± SD of at least three independent experiments; read-out: Normal Human Cell Lines, CC50, L02
[3] = Cytotoxicity (SRB) against non-tumoral HMLE cells; assay type: cell-based, human; details: human, HMLE cells (non-tumoral human mammary epithelial cells); increasing concentrations up to 100 μM; mean ± SD of at least three independent experiments; read-out: Normal Human Cell Lines, CC50, HMLE
[4] = test system: human mammary epithelial cell (HMLE); test: Cytotoxicity (SRB) against non-tumoral HMLE cells; assay type: cell-based; details: HMLE versus the five tumoral cell lines
[5] = most of their in vitro IC50 values against the five human cancer lines
[6] = Homo sapiens, nearly all of the IC50 values

| Compound | melting point [°C] | IC50 (HepG2 cells) [µM] | IC50 (SW1990 cells) [µM] | IC50 (HeLa cells) [µM] | IC50 [1, 5] [µM] | IC50 (MCF-7 cells) [µM] | IC50 (A549 cells) [µM] | IC50 [1, 6] [µM] | SI (CC50 HMLE/IC50 HepG2) (HepG2 cells) | SI (CC50 L02/IC50 HepG2) (HepG2 cells) | SI (CC50 HMLE/IC50 SW1990) (SW1990 cells) | SI (CC50 L02/IC50 SW1990) (SW1990 cells) | SI (CC50 HMLE/IC50 Hela) (HeLa cells) | SI (CC50 L02/IC50 Hela) (HeLa cells) | SI (CC50 HMLE/IC50 MCF7) (MCF-7 cells) | SI (CC50 L02/IC50 MCF7) (MCF-7 cells) | SI (CC50 HMLE/IC50 A549) (A549 cells) | SI (CC50 L02/IC50 A549) (A549 cells) | CC50 at 48 h [2] [µM] | CC50 at 48 h [3] [µM] | further results |
| --- | --- | --- | --- | --- | --- | --- | --- | --- | --- | --- | --- | --- | --- | --- | --- | --- | --- | --- | --- | --- | --- |
| COc1ccccc1C(=O)/C=C/c1c(OC)cccc1OC [b6, (E)-1-(2-Methoxyphenyl)-3-(2,6-dimethoxyphenyl)prop-2-en-1-one] | 109 to 111.4 | 2.05 ± 0.22 | 10 ± 0.14 | 5 ± 0.03 | < 10 | 5.6 ± 0.17 | 6.35 ± 0.32 |  | 2.0 | 4.3 | 0.4 | 0.9 | 0.8 | 1.8 | 0.7 | 1.6 | 0.6 | 1.4 | 8.78 ± 1.21 | 4.01 ± 0.05 |  |
| COc1cccc(OC)c1/C=C/C(=O)c1ccc(O)cc1O [b27, (E)-1-(2,4-Dihydroxyphenyl)-3-(2,6-dimethoxyphenyl)prop-2-en-1-one] | 218.7 to 220.2 | 17.4 ± 1.01 | > 30 | 24.84 ± 0.17 |  | 23.1 ± 0.82 | 17.3 ± 0.76 |  | >5.8 | 2.0 |  | <1.2 | >4.0 | 1.4 | >4.3 | 1.5 | >5.8 | 2.1 | 35.5 ± 5.72 | > 100 | SI between the CC50 in HMLE and IC50 in tumoral cells [4]: 2–7 fold |
| CCOc1ccc(C(=O)/C=C/c2c(OC)cccc2OC)cc1OC [b16, (E)-1-(4-Ethoxy-3-methoxyphenyl)-3-(2,6-dimethoxyphenyl)prop-2-en-1-one] | 105.3 to 107.2 | 4.14 ± 0.11 | 7.67 ± 0.04 | 5.02 ± 0.09 | < 10 | 4.79 ± 0.13 | 5.78 ± 0.11 |  | 2.2 | 10.8 | 1.2 | 5.8 | 1.8 | 8.9 | 1.9 | 9.3 | 1.6 | 7.7 | 44.7 ± 8.15 | 9.15 ± 1.33 |  |
| COc1cccc(OC)c1/C=C/C(=O)c1ccc(-c2ccccc2)cc1 [b22, (E)-1-([1,1'-Biphenyl]-4-yl)-3-(2,6-dimethoxyphenyl)prop-2-en-1-one] | 121.7 to 123.5 | 0.25 ± 0.03 | 1.24 ± 0.08 | 0.87 ± 0.25 | < 10 | 2.4 ± 0.08 | 1.75 ± 0.15 |  | 8.8 | 58.2 | 1.8 | 11.7 | 2.5 | 16.7 | 0.9 | 6.1 | 1.3 | 8.3 | 14.5 ± 6.58 | 2.21 ± 0.09 | fold as potent than etoposide (HepG2 cells; HepG2 cells, ratio of IC50 values versus etoposide): 20.4 fold; fold as potent than etoposide (SW1990 cells; SW1990 cells, ratio of IC50 values versus etoposide): 23.6 fold |
| COc1ccc(OC)c(C(=O)/C=C/c2c(OC)cccc2OC)c1 [b18, (E)-1-(2,5-Dimethoxyphenyl)-3-(2,6-dimethoxyphenyl)prop-2-en-1-one] | 121 to 122 | 1.59 ± 0.15 | 9.64 ± 0.18 | 4.56 ± 0.22 | < 10 | 5.6 ± 0.06 | 4.16 ± 0.72 |  | 1.6 | 10.7 | 0.3 | 1.8 | 0.5 | 3.7 | 0.4 | 3.0 | 0.6 | 4.1 | 17 ± 2.73 | 2.48 ± 0.34 |  |
| COc1cccc(OC)c1/C=C/C(=O)c1cccc(N)c1 [b23, (E)-1-(3-Aminophenyl)-3-(2,6-dimethoxyphenyl)prop-2-en-1-one] | 148.6 to 150.3 | 5.7 ± 0.09 | 10.07 ± 0.03 | 7.23 ± 0.07 | < 10 | 8.56 ± 0.75 | 7.32 ± 0.29 |  | 2.0 | 7.6 | 1.1 | 4.3 | 1.6 | 6.0 | 1.3 | 5.0 | 1.6 | 5.9 | 43.2 ± 11.7 | 11.4 ± 0.76 |  |

Now from value to compound, other results behind:

| melting point [°C] | IC50 (HepG2 cells) [µM] | IC50 (SW1990 cells) [µM] | IC50 (HeLa cells) [µM] | IC50 [1, 5] [µM] | IC50 (MCF-7 cells) [µM] | IC50 (A549 cells) [µM] | IC50 [1, 6] [µM] | Compound | SI (CC50 HMLE/IC50 HepG2) (HepG2 cells) | SI (CC50 L02/IC50 HepG2) (HepG2 cells) | SI (CC50 HMLE/IC50 SW1990) (SW1990 cells) | SI (CC50 L02/IC50 SW1990) (SW1990 cells) | SI (CC50 HMLE/IC50 Hela) (HeLa cells) | SI (CC50 L02/IC50 Hela) (HeLa cells) | SI (CC50 HMLE/IC50 MCF7) (MCF-7 cells) | SI (CC50 L02/IC50 MCF7) (MCF-7 cells) | SI (CC50 HMLE/IC50 A549) (A549 cells) | SI (CC50 L02/IC50 A549) (A549 cells) | CC50 at 48 h [2] [µM] | CC50 at 48 h [3] [µM] | further results |
| --- | --- | --- | --- | --- | --- | --- | --- | --- | --- | --- | --- | --- | --- | --- | --- | --- | --- | --- | --- | --- | --- |
| 144.3 to 145.9 | 20.4 ± 0.21 | > 30 | > 30 |  | > 30 | > 30 | > 30 | COc1cccc(OC)c1/C=C/C(=O)c1ccc(C#N)cc1 [b30, (E)-1-(4-Cyanophenyl)-3-(2,6-dimethoxyphenyl)prop-2-en-1-one] | 0.6 | >4.9 | <0.4 |  | <0.4 |  | <0.4 |  | <0.4 |  | > 100 | 12.6 ± 2.82 |  |
| 172.3 to 173.7 | > 30 | > 30 | > 30 |  | > 30 | > 30 | > 30 | COc1cccc(OC)c1/C=C/C(=O)c1cccc([N+](=O)[O-])c1 [b39, (E)-1-(3-Nitrophenyl)-3-(2,6-dimethoxyphenyl)prop-2-en-1-one] |  |  |  |  |  |  |  |  |  |  | > 100 | > 100 |  |
| 147.3 to 148.6 | > 30 | > 30 | > 30 |  | > 30 | > 30 | > 30 | COc1cccc(OC)c1/C=C/C(=O)c1ccc([N+](=O)[O-])cc1 [b40, (E)-1-(4-Nitrophenyl)-3-(2,6-dimethoxyphenyl)prop-2-en-1-one] |  |  |  |  |  |  |  |  |  |  | > 100 | > 100 |  |
| 126.5 to 127.8 | > 30 | > 30 | > 30 |  | > 30 | > 30 | > 30 | COc1cccc(OC)c1/C=C/C(=O)c1cc(C(F)(F)F)cc(C(F)(F)F)c1 [b42, (E)-1-(3,5-bis(Trifluoromethyl)phenyl)-3-(2,6-dimethoxyphenyl)prop-2-en-1-one] |  |  |  |  |  |  |  |  |  |  | > 100 | > 100 |  |
| 145.3 to 146.7 | 24.4 ± 5.87 | > 30 | 29.1 ± 3.06 |  | > 30 | > 30 | > 30 | COc1cccc(OC)c1/C=C/C(=O)c1cccc(C(F)(F)F)c1 [b41, (E)-1-(3-(Trifluoromethyl)phenyl)-3-(2,6-dimethoxyphenyl)prop-2-en-1-one] | >4.1 | >4.1 |  |  | >3.4 | >3.4 |  |  |  |  | > 100 | > 100 |  |
